The target in the first assay is T1, MMP-2 (Gelatinase A) (Homo sapiens, UniProt P08253).
T1 sequence (P08253 110-660): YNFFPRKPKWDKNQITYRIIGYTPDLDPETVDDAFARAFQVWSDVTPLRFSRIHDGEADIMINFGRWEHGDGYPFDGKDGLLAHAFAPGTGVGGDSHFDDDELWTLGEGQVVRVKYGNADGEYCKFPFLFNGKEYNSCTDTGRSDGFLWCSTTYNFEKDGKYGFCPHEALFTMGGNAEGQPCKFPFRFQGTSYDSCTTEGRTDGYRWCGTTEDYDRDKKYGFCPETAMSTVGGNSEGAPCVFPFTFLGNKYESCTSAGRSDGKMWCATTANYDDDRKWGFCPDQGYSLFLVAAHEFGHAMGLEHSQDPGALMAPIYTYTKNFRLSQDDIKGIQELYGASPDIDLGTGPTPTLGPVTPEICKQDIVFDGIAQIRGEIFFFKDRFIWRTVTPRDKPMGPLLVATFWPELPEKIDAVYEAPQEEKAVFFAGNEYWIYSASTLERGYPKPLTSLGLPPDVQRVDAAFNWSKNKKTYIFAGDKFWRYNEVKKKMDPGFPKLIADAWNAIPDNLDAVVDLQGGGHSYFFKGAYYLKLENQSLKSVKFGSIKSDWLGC
Nature of the assay: biochemical. Particulars: read-out: IC50 MMP2.
MMP-3 (stromelysin), sequence (P08254 100-477): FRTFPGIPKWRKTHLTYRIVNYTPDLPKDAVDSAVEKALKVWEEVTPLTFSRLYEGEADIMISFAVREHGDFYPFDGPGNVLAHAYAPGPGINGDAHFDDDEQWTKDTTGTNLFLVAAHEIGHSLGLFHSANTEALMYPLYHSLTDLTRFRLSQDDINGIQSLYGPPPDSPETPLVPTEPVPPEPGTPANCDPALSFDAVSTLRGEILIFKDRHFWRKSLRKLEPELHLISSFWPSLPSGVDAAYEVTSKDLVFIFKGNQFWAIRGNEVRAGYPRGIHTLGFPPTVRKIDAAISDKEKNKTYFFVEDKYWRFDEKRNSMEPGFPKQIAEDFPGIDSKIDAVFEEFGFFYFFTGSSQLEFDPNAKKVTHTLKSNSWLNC
Experimental: (§1) The assays measure the amount by which a test compound reduces the hydrolysis of a thiopeptolide substrate caused by a matrix metalloproteinase enzyme.
(§2) Thiopeptolide substrates show virtually no decomposition or hydrolysis in the absence of a matrix metalloproteinase enzyme. A typical thiopeptolide substrate commonly utilized for assays is Ac-Pro-Leu-Gly-thioester-Leu-Leu-Gly-O Et. […] Assays are carried out with and without matrix metalloproteinase inhibitor compounds, and the amount of hydrolysis is compared for a determination of inhibitory activity of the test compounds.
Regarding `O=C(Cc1ccccc1)N[C@@H](CC(=O)c1ccc2oc3ccccc3c2c1)C(=O)O` [(S)-4-Dibenzofuran-2-yl-4-oxo-2-phenylacetylamino-butyric acid], the half-maximal inhibitory concentration (IC50) was found to be 84 nM.

Another assay concerns the target MMP-3 (stromelysin) (Homo sapiens, UniProt P08254). Nature of the assay: biochemical. It counts as biochemical. The following applies: read-out: IC50 MMP3.
Experimental: as §1, §2
Consider `O=C(O)CCC(O)c1ccc(-c2ccc(Cl)cc2)cc1` (racemic) [(±)-4-(4'-Chloro-biphenyl-4-yl)-4-hydroxy-butyric acid], for which the IC50 was found to be 280 nM.

With `O=C(O)CCC(=NO)c1ccc(-c2ccc(Br)cc2)cc1` [4-(4'-Bromo-biphenyl-4-yl)-4-hydroxyimino-butyric acid], the IC50 stood at 110 nM.

For `CN(C)N=C(CCC(=O)O)c1ccc(-c2ccc(Cl)cc2)cc1` [4-(4'-Chloro-biphenyl-4-yl)-4-(dimethylhydrazono)-butyric acid], the IC50 is 930 nM.

With `O=C(O)CCC(=NO)c1ccc(-c2ccc(Cl)cc2)cc1` [4-(4'-Chloro-biphenyl-4-yl)-4-hydroxyimino-butyric acid], the IC50 came to 120 nM.

`O=C(Cc1ccccc1)N[C@@H](CC(=O)c1ccc2oc3ccccc3c2c1)C(=O)O` [(S)-4-Dibenzofuran-2-yl-4-oxo-2-phenylacetylamino-butyric acid]: the IC50 came to 330 nM.

As for `CC(C)CC(CC(=O)NO)C(=O)N[C@@H](CC(C)C)C(=O)N[C@@H](Cc1ccccc1)C(N)=O` (stereo partly shown) [Compound U24522, reference compound], the IC50 was 20 nM.

In general, IC50 refers to the concentration at which inhibition is half-maximal.

Values taken from patent publication US5948780A, “Method for treating and preventing heart failure and ventricular dilatation” (priority 1997, dated 1999).
